Reference: PubChem BioAssay (NCI)
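Here, GI50 denotes the concentration required for 50% inhibition of growth. At the TGI there is no net growth.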

How the values were obtained:
Experiment in all cases: NCI anticancer screen, dose series, 384-well format
[1] = test system: 786-0 renal
[2] = test system: A498 renal
[3] = test system: A549 NSCLC
[4] = test system: ACHN renal
[5] = test system: BT-549 breast
[6] = test system: CAKI-1 renal
[7] = test system: CCRF-CEM leukemia
[8] = test system: COLO 205 colon
[9] = test system: DU-145 prostate
[10] = test system: EKVX NSCLC
[11] = test system: HCC-2998 colon
[12] = test system: HCT-15 colon
[13] = test system: HL-60(TB) leukemia
[14] = test system: HOP-62 NSCLC
[15] = test system: HOP-92 NSCLC
[16] = test system: HS 578T breast
[17] = test system: HT29 colon
[18] = test system: IGROV1 ovarian
[19] = test system: K-562 leukemia
[20] = test system: KM12 colon
[21] = test system: LOX IMVI melanoma
[22] = test system: M14 melanoma
[23] = test system: MALME-3M melanoma
[24] = test system: MCF7 breast
[25] = test system: MDA-MB-231 breast
[26] = test system: MDA-MB-435 melanoma
[27] = test system: MDA-MB-468 breast
[28] = test system: MOLT-4 leukemia
[29] = test system: NCI-H226 lung
[30] = test system: NCI-H23 lung
[31] = test system: NCI-H322M lung
[32] = test system: NCI-H460 NSCLC
[33] = test system: NCI-H522 lung
[34] = test system: NCI/ADR-RES ovarian
[35] = test system: OVCAR-3 ovarian
[36] = test system: OVCAR-4 ovarian
[37] = test system: OVCAR-5 ovarian
[38] = test system: OVCAR-8 ovarian
[39] = test system: PC-3 prostate
[40] = test system: RPMI-8226 leukemia
[41] = test system: RXF 393 renal
[42] = test system: SF-268 CNS
[43] = test system: SF-295 CNS
[44] = test system: SF-539 CNS
[45] = test system: SK-MEL-28 melanoma
[46] = test system: SK-MEL-5 melanoma
[47] = test system: SK-OV-3 ovarian
[48] = test system: SN12C renal
[49] = test system: SNB-19 CNS
[50] = test system: SNB-75 CNS
[51] = test system: SR leukemia
[52] = test system: SW-620 colon
[53] = test system: T-47D breast
[54] = test system: TK-10 renal
[55] = test system: UACC-257 melanoma
[56] = test system: UACC-62 melanoma
[57] = test system: UO-31 renal

`Cc1cncc(-c2nc(NCCc3c[nH]c4ccccc34)c3ncn(C(C)C)c3n2)c1` was tested. Which GI50 [1] did it give?
Its GI50 is 1.76 µM.

And the TGI [1]?
Its TGI is 3.65 µM.

What about the GI50 [2] of the same compound?
The GI50 was 2.39 µM.

And the TGI [2]?
The TGI was 6.39 µM.

And the GI50 [3]?
The GI50 was 3.84 µM.

And the TGI [3]?
Its TGI is 14.1 µM.

And the GI50 [4]?
The GI50 was 4.17 µM.

And the TGI [4]?
The TGI was 13.5 µM.

And the GI50 [5]?
The GI50 was 4.91 µM.

And the TGI [5]?
The TGI was 15.4 µM.

What about the GI50 [6] of the same compound?
The GI50 was 3.96 µM.

What about the TGI [6] of the same compound?
The TGI was 12.7 µM.

What about the GI50 [7] of the same compound?
The GI50 was 2.11 µM.

And the TGI [7]?
Its TGI is 4.22 µM.

And the GI50 [8]?
Its GI50 is 2.28 µM.

And the TGI [8]?
The TGI was 4.29 µM.

What about the GI50 [9] of the same compound?
Its GI50 is 3.47 µM.

What about the TGI [9] of the same compound?
The TGI was 11.1 µM.

What about the GI50 [10] of the same compound?
The GI50 was 4.24 µM.

And the TGI [10]?
Its TGI is 14 µM.

What about the GI50 [11] of the same compound?
The GI50 was 2.5 µM.

And the TGI [11]?
Its TGI is 5 µM.

And the GI50 [12]?
The GI50 was 1.77 µM.

And the TGI [12]?
Its TGI is 3.29 µM.

What about the GI50 [13] of the same compound?
Its GI50 is 1.73 µM.

What about the TGI [13] of the same compound?
The TGI was 3.15 µM.

What about the GI50 [14] of the same compound?
Its GI50 is 2.92 µM.

What about the TGI [14] of the same compound?
The TGI was 8.22 µM.

And the GI50 [15]?
The GI50 was 3.76 µM.

And the TGI [15]?
The TGI was 10.5 µM.

What about the GI50 [16] of the same compound?
Its GI50 is 2.52 µM.

What about the TGI [16] of the same compound?
Its TGI is 5.41 µM.

And the GI50 [17]?
Its GI50 is 1.71 µM.

What about the TGI [17] of the same compound?
Its TGI is 3.19 µM.

What about the GI50 [18] of the same compound?
The GI50 was 4.19 µM.

And the TGI [18]?
Its TGI is 14.8 µM.

What about the GI50 [19] of the same compound?
Its GI50 is 1.89 µM.

And the TGI [19]?
The TGI was 3.47 µM.

What about the GI50 [20] of the same compound?
The GI50 was 2.07 µM.

What about the TGI [20] of the same compound?
The TGI was 4.21 µM.

And the GI50 [21]?
The GI50 was 4.15 µM.

And the TGI [21]?
Its TGI is 13.9 µM.

What about the GI50 [22] of the same compound?
The GI50 was 2.84 µM.

What about the TGI [22] of the same compound?
The TGI was 6.11 µM.

What about the GI50 [23] of the same compound?
Its GI50 is 1.77 µM.

What about the TGI [23] of the same compound?
Its TGI is 3.24 µM.

And the GI50 [24]?
The GI50 was 3.42 µM.

And the TGI [24]?
The TGI was 9.2 µM.

And the GI50 [25]?
Its GI50 is 4.16 µM.

And the TGI [25]?
Its TGI is 12 µM.

What about the GI50 [26] of the same compound?
The GI50 was 5.52 µM.

And the TGI [26]?
Its TGI is 17.8 µM.

And the GI50 [27]?
Its GI50 is 2.21 µM.

What about the TGI [27] of the same compound?
The TGI was 4.14 µM.

What about the GI50 [28] of the same compound?
The GI50 was 1.87 µM.

What about the TGI [28] of the same compound?
Its TGI is 3.55 µM.

What about the GI50 [29] of the same compound?
Its GI50 is 4.34 µM.

And the TGI [29]?
Its TGI is 11.3 µM.

And the GI50 [30]?
Its GI50 is 3.81 µM.

And the TGI [30]?
The TGI was 12.8 µM.

What about the GI50 [31] of the same compound?
The GI50 was 3.06 µM.

What about the TGI [31] of the same compound?
Its TGI is 10.1 µM.

What about the GI50 [32] of the same compound?
The GI50 was 2.26 µM.

What about the TGI [32] of the same compound?
The TGI was 4.53 µM.

And the GI50 [33]?
Its GI50 is 4.42 µM.

What about the TGI [33] of the same compound?
The TGI was 13.1 µM.

And the GI50 [34]?
Its GI50 is 3.29 µM.

And the TGI [34]?
The TGI was 9.08 µM.

What about the GI50 [35] of the same compound?
The GI50 was 4.65 µM.

And the TGI [35]?
Its TGI is 14.3 µM.

And the GI50 [36]?
Its GI50 is 3.37 µM.

And the TGI [36]?
Its TGI is 9.2 µM.

And the GI50 [37]?
The GI50 was 2.06 µM.

What about the TGI [37] of the same compound?
The TGI was 4.73 µM.

And the GI50 [38]?
Its GI50 is 4.05 µM.

And the TGI [38]?
Its TGI is 13.6 µM.

And the GI50 [39]?
Its GI50 is 3.19 µM.

And the TGI [39]?
The TGI was 8.62 µM.

And the GI50 [40]?
The GI50 was 2.2 µM.

What about the TGI [40] of the same compound?
The TGI was 3.78 µM.

What about the GI50 [41] of the same compound?
Its GI50 is 1.96 µM.

What about the TGI [41] of the same compound?
Its TGI is 4.63 µM.

What about the GI50 [42] of the same compound?
The GI50 was 3.93 µM.

What about the TGI [42] of the same compound?
The TGI was 12.8 µM.

What about the GI50 [43] of the same compound?
Its GI50 is 1.93 µM.

What about the TGI [43] of the same compound?
The TGI was 3.93 µM.

And the GI50 [44]?
Its GI50 is 2.63 µM.

And the TGI [44]?
The TGI was 7.18 µM.

And the GI50 [45]?
Its GI50 is 1.89 µM.

And the TGI [45]?
The TGI was 3.94 µM.

What about the GI50 [46] of the same compound?
The GI50 was 2.5 µM.

What about the TGI [46] of the same compound?
Its TGI is 7.39 µM.

What about the GI50 [47] of the same compound?
The GI50 was 3.99 µM.

What about the TGI [47] of the same compound?
Its TGI is 12.3 µM.

What about the GI50 [48] of the same compound?
Its GI50 is 5.32 µM.

And the TGI [48]?
Its TGI is 17.2 µM.

What about the GI50 [49] of the same compound?
The GI50 was 5.5 µM.

And the TGI [49]?
Its TGI is 18.8 µM.

And the GI50 [50]?
Its GI50 is 4.46 µM.

What about the TGI [50] of the same compound?
The TGI was 16.8 µM.

And the GI50 [51]?
The GI50 was 1.47 µM.

What about the TGI [51] of the same compound?
Its TGI is 3.02 µM.

And the GI50 [52]?
Its GI50 is 2.11 µM.

And the TGI [52]?
The TGI was 3.74 µM.

What about the GI50 [53] of the same compound?
The GI50 was 3.57 µM.

And the TGI [53]?
The TGI was 10.9 µM.

What about the GI50 [54] of the same compound?
The GI50 was 3.12 µM.

And the TGI [54]?
The TGI was 13.2 µM.

What about the GI50 [55] of the same compound?
Its GI50 is 2.04 µM.

And the TGI [55]?
Its TGI is 3.54 µM.

What about the GI50 [56] of the same compound?
Its GI50 is 2.56 µM.

And the TGI [56]?
The TGI was 5.81 µM.

And the GI50 [57]?
Its GI50 is 4.64 µM.

What about the TGI [57] of the same compound?
The TGI was 17.3 µM.
